# Test system: BT-474
# Settings: 72 h
# Outline: (§1)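 In this assay, breast cancer cell lines spent 72 h with compound at 5 concentrations in 10-fold steps over a compound-specific 10,000-fold range. The first readout was cell death by CellTox Green fluorescence, and the second was viability by CellTiter-Glo luminescence, each normalised per plate to 0.1 % DMSO and a positive kill control. EC50 came from the dose-response curves, censored at the top concentration.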
row,"EC50, CellTiter-Glo",Structure (SMILES)
1,2480 nM,COc1cc(Nc2c(C#N)cnc3cc(OCCCN4CCN(C)CC4)c(OC)cc23)c(Cl)cc1Cl [Bosutinib]
2,14500 nM,CCN(CC)CCCC(C)Nc1ccnc2cc(Cl)ccc12 (stereo not given) [Chloroquine]
3,233 nM,C=CCn1c(=O)c2cnc(Nc3ccc(N4CCN(C)CC4)cc3)nc2n1-c1cccc(C(C)(C)O)n1 [MK1775]
4,42.4 nM,CCNC(=O)c1noc(-c2cc(C(C)C)c(O)cc2O)c1-c1ccc(CN2CCOCC2)cc1 [NVP-AUY922]
5,7660 nM,O=[N+]([O-])c1ccc2c(c1)S(=O)(=O)C=C2 [Stattic]
6,3760 nM,O=C(CCCCCCC(=O)Nc1ccccc1)NO [Vorinostat]

# Test system: BT-549
# Settings: 72 h
# Outline: as §1
row,"EC50, CellTiter-Glo",Structure (SMILES)
1,3160 nM,COc1cc(Nc2c(C#N)cnc3cc(OCCCN4CCN(C)CC4)c(OC)cc23)c(Cl)cc1Cl [Bosutinib]
2,15000 nM,CCN(CC)CCCC(C)Nc1ccnc2cc(Cl)ccc12 (stereo not given) [Chloroquine]
3,373 nM,C=CCn1c(=O)c2cnc(Nc3ccc(N4CCN(C)CC4)cc3)nc2n1-c1cccc(C(C)(C)O)n1 [MK1775]
4,11.7 nM,CCNC(=O)c1noc(-c2cc(C(C)C)c(O)cc2O)c1-c1ccc(CN2CCOCC2)cc1 [NVP-AUY922]
5,1010 nM,O=[N+]([O-])c1ccc2c(c1)S(=O)(=O)C=C2 [Stattic]
6,7340 nM,O=C(CCCCCCC(=O)Nc1ccccc1)NO [Vorinostat]

# Test system: CAL-120
# Settings: 72 h
# Outline: as §1
row,Structure (SMILES),"EC50, CellTiter-Glo"
1,COc1cc(Nc2c(C#N)cnc3cc(OCCCN4CCN(C)CC4)c(OC)cc23)c(Cl)cc1Cl [Bosutinib],1450 nM
2,CCN(CC)CCCC(C)Nc1ccnc2cc(Cl)ccc12 (stereo not given) [Chloroquine],9490 nM
3,C=CCn1c(=O)c2cnc(Nc3ccc(N4CCN(C)CC4)cc3)nc2n1-c1cccc(C(C)(C)O)n1 [MK1775],740 nM
4,CCNC(=O)c1noc(-c2cc(C(C)C)c(O)cc2O)c1-c1ccc(CN2CCOCC2)cc1 [NVP-AUY922],37.2 nM
5,O=[N+]([O-])c1ccc2c(c1)S(=O)(=O)C=C2 [Stattic],11000 nM
6,O=C(CCCCCCC(=O)Nc1ccccc1)NO [Vorinostat],8470 nM

# Test system: CAL-148
# Settings: 72 h
# Outline: as §1
row,Structure (SMILES),"EC50, CellTiter-Glo"
1,COc1cc(Nc2c(C#N)cnc3cc(OCCCN4CCN(C)CC4)c(OC)cc23)c(Cl)cc1Cl [Bosutinib],7590 nM
2,CCN(CC)CCCC(C)Nc1ccnc2cc(Cl)ccc12 (stereo not given) [Chloroquine],12400 nM
3,C=CCn1c(=O)c2cnc(Nc3ccc(N4CCN(C)CC4)cc3)nc2n1-c1cccc(C(C)(C)O)n1 [MK1775],190 nM
4,CCNC(=O)c1noc(-c2cc(C(C)C)c(O)cc2O)c1-c1ccc(CN2CCOCC2)cc1 [NVP-AUY922],41.4 nM
5,O=[N+]([O-])c1ccc2c(c1)S(=O)(=O)C=C2 [Stattic],4640 nM
6,O=C(CCCCCCC(=O)Nc1ccccc1)NO [Vorinostat],2140 nM

# Test system: CAL-51
# Settings: 72 h
# Outline: as §1
row,Structure (SMILES),"EC50, CellTiter-Glo"
1,COc1cc(Nc2c(C#N)cnc3cc(OCCCN4CCN(C)CC4)c(OC)cc23)c(Cl)cc1Cl [Bosutinib],1400 nM
2,CCN(CC)CCCC(C)Nc1ccnc2cc(Cl)ccc12 (stereo not given) [Chloroquine],6560 nM
3,C=CCn1c(=O)c2cnc(Nc3ccc(N4CCN(C)CC4)cc3)nc2n1-c1cccc(C(C)(C)O)n1 [MK1775],380 nM
4,CCNC(=O)c1noc(-c2cc(C(C)C)c(O)cc2O)c1-c1ccc(CN2CCOCC2)cc1 [NVP-AUY922],34 nM
5,O=[N+]([O-])c1ccc2c(c1)S(=O)(=O)C=C2 [Stattic],1540 nM
6,O=C(CCCCCCC(=O)Nc1ccccc1)NO [Vorinostat],2180 nM

# Test system: CAL-85-1
# Settings: 72 h
# Outline: as §1
row,Structure (SMILES),"EC50, CellTiter-Glo"
1,COc1cc(Nc2c(C#N)cnc3cc(OCCCN4CCN(C)CC4)c(OC)cc23)c(Cl)cc1Cl [Bosutinib],1580 nM
2,CCN(CC)CCCC(C)Nc1ccnc2cc(Cl)ccc12 (stereo not given) [Chloroquine],11300 nM
3,C=CCn1c(=O)c2cnc(Nc3ccc(N4CCN(C)CC4)cc3)nc2n1-c1cccc(C(C)(C)O)n1 [MK1775],294 nM
4,CCNC(=O)c1noc(-c2cc(C(C)C)c(O)cc2O)c1-c1ccc(CN2CCOCC2)cc1 [NVP-AUY922],38.8 nM
5,O=[N+]([O-])c1ccc2c(c1)S(=O)(=O)C=C2 [Stattic],1630 nM
6,O=C(CCCCCCC(=O)Nc1ccccc1)NO [Vorinostat],2320 nM

# Test system: DU-4475
# Settings: 72 h
# Outline: as §1
row,Structure (SMILES),"EC50, CellTiter-Glo"
1,CCN(CC)CCCC(C)Nc1ccnc2cc(Cl)ccc12 (stereo not given) [Chloroquine],18700 nM
2,C=CCn1c(=O)c2cnc(Nc3ccc(N4CCN(C)CC4)cc3)nc2n1-c1cccc(C(C)(C)O)n1 [MK1775],1740 nM
3,CCNC(=O)c1noc(-c2cc(C(C)C)c(O)cc2O)c1-c1ccc(CN2CCOCC2)cc1 [NVP-AUY922],33.1 nM
4,O=[N+]([O-])c1ccc2c(c1)S(=O)(=O)C=C2 [Stattic],16300 nM
5,O=C(CCCCCCC(=O)Nc1ccccc1)NO [Vorinostat],2300 nM

# Test system: HCC1143
# Settings: 72 h
# Outline: as §1
row,"EC50, CellTiter-Glo",Structure (SMILES)
1,1440 nM,COc1cc(Nc2c(C#N)cnc3cc(OCCCN4CCN(C)CC4)c(OC)cc23)c(Cl)cc1Cl [Bosutinib]
2,43200 nM,CCN(CC)CCCC(C)Nc1ccnc2cc(Cl)ccc12 (stereo not given) [Chloroquine]
3,558 nM,C=CCn1c(=O)c2cnc(Nc3ccc(N4CCN(C)CC4)cc3)nc2n1-c1cccc(C(C)(C)O)n1 [MK1775]
4,38.7 nM,CCNC(=O)c1noc(-c2cc(C(C)C)c(O)cc2O)c1-c1ccc(CN2CCOCC2)cc1 [NVP-AUY922]
5,13200 nM,O=[N+]([O-])c1ccc2c(c1)S(=O)(=O)C=C2 [Stattic]
6,4590 nM,O=C(CCCCCCC(=O)Nc1ccccc1)NO [Vorinostat]

# Test system: HCC1599
# Settings: 72 h
# Outline: as §1
row,"EC50, CellTiter-Glo",Structure (SMILES)
1,3160 nM,COc1cc(Nc2c(C#N)cnc3cc(OCCCN4CCN(C)CC4)c(OC)cc23)c(Cl)cc1Cl [Bosutinib]
2,14100 nM,CCN(CC)CCCC(C)Nc1ccnc2cc(Cl)ccc12 (stereo not given) [Chloroquine]
3,183 nM,C=CCn1c(=O)c2cnc(Nc3ccc(N4CCN(C)CC4)cc3)nc2n1-c1cccc(C(C)(C)O)n1 [MK1775]

# Reference: the supplement of paper PMC4862054
